Source: patent US8927580B2, “Thiosemicarbazone compounds and use in the treatment of cancer” (Oncochel Therapeutics LLC, priority 2010, dated 2015)

Assays:
[1] = PANC 1 xenograft study: body and organ weights, haematology, histopathology
[2] = system: SK-N-MC neuroepithelioma cells; experiment: Iron efflux assay (59Fe release from pre-labeled cells); format: cell-based, human; details: 25 μM chelator, 3 h at 37° C.
Method: The culture dishes were then placed on ice, the supernatant containing excess ^59Fe-Tf was aspirated and the cells washed 4 times with ice-cold PBS. […] After 3 h the culture dishes were again placed on ice, the media was collected in counting tubes and this provided a measurement of released ^59Fe. Ice-cold PBS (1 mL) was added to plates containing cells and cells were scraped from the plastic surface using a Teflon spatula and also collected in counting tubes. These tubes represent the intracellular ^59Fe content. Results are expressed as total ^59Fe released as a percentage of total ^59Fe present. Radioactivity was measured using a Wallac Wizard 3″ Gamma Counter (PerkinElmer, MA, USA).

[3] = system: p21; experiment: Western blot analysis, p21 expression; format: cell-based; details: MIAPaCa-2 cells
Method: Western analysis was performed via established protocols (Gao, J. and D. R. Richardson (2001). Blood 98: 842-50). The primary antibodies used were against NDRG1 (Abcam; UK), p21, cyclin D1, transferrin receptor 1 (TfR1; Santa Cruz, CA, USA) and β-actin (Sigma-Aldrich), with secondary HRP-conjugated goat and mouse antibodies (Sigma-Aldrich).
Dp4cycH4mT was examined to determine whether it could up-regulate NDRG-1 expression. To further evaluate the effect of the chelator Dp4cycH4mT on other key molecules involved in cell cycle progression, the expression of the cyclin-dependent kinase inhibitor, p21, as well as cyclin D1 in MIAPaCa-2 cells was also examined.

[4] = system: SK-N-MC neuroepithelioma cells; experiment: Iron uptake assay (59Fe uptake from 59Fe-transferrin); format: cell-based, human; details: 25 μM chelator, 3 h at 37° C., 59Fe-Tf
Method: Cells were cultured in the same way as for the iron efflux experiments. […] At the end of the incubation the culture dishes were placed on ice, the media aspirated, and the cells washed 4 times with ice cold PBS. Protease (1 mL; 1 mg/mL; Sigma-Aldrich, NSW, Australia) solution was added to each plate and allowed to incubate on ice for 30 min. This facilitated the removal of membrane bound ^59Fe-Tf. Cells were then scraped from the plastic surface using a Teflon spatula and collected in Eppendorf tubes. These were centrifuged at 10000 rpm and 4° C. for 3 min. The supernatant was then transferred into counting tubes and the cell pellet resuspended in PBS before also being transferred into another set of counting tubes. Radioactivity was measured using a Wallac Wizard 3″ Gamma Counter (PerkinElmer, MA, USA). Results are expressed as average ^59Fe content of the cellular fraction as a percentage of the control value.

[5] = system: CFPAC-1 pancreatic cancer cells; experiment: MTT proliferation assay, CFPAC-1; format: cell-based; details: Homo sapiens; CFPAC-1, MTT, 72 h
Method: (§1) The pancreatic cancer cell lines, including MIAPaCa-2, PANC 1, CAPAN-2 and CFPAC-1 were a generous gift from Prof. Andrew Biankin (Garvan Institute, NSW, Australia). The MIAPaCa-2, PANC 1 and CFPAC-1 cell lines were grown in DMEM medium (Invitrogen) and CAPAN-2 cells were grown in McCoy's medium (Invitrogen). All media was supplemented with 10% (v/v) fetal calf serum (Invitrogen), 1% (v/v) non-essential amino acids (Invitrogen), 1% (v/v) sodium pyruvate (Invitrogen), 2 mM L-glutamine (Invitrogen), 100 μg/mL of streptomycin (Invitrogen), 100 U/ml penicillin (Invitrogen), and 0.28 μg/mL of fungizone.
(§2) To further examine the spectrum of anti-proliferative activity, Dp4cycH4mT was tested against pancreatic cancer in vitro, performing MTT proliferation assays with PANC 1, MIAPaCa-2, CFPAC-1 and CAPAN-2 pancreatic cancer cells. As a comparison, currently used treatments for pancreatic cancer including gemcitabine and 5-fluorouracil were also tested. The iron chelator, DFO, was included as a positive control.
(§3) Table 2A. Anti-proliferative activity of Dp4cycH4mT against pancreatic cancer cell lines. Growth and antiproliferative activity IC50 (μM) values of Dp4cycH4mT in a variety of pancreatic cell lines and in comparison to DFO and the clinically used drugs gemcitabine and 5-fluorouracil as determined by the MTT assay. Cells were seeded and allowed to attach to wells for 24 h and then incubated for 72 h at 37° C. with control medium or the chelators. Results are mean±SD (3 experiments).
as §3, with “2B.” for “2A.”, “IC90” for “Growth and antiproliferative activity IC50”

[6] = system: metmyoglobin (metMb); experiment: metMb formation in vivo; parameters: species or system C57BL6 mice; details: 6 mg/kg intravenously, 30 min post-administration, heart
Method: FIG. 14. Effect of thiosemicarbazone chelators on metMb-formation in vivo. MetMb levels after Dp44mT Triapine® or Dp4cycH4mT treatment in vivo at a dose of 6 mg/kg administered intravenously via the tail vein. Mice in the control group were treated with vehicle alone. At 30 min post-administration, whole hearts were collected for determination of metMb levels.
Mouse heart tissue was exhaustively perfused with ice-cold HBSS to remove blood and homogenized in ice-cold HBSS containing protease inhibitor cocktail (Roche, Basel, Switzerland). Heart homogenates were centrifuged (16,000×xg/45 min/4° C.) and the supernatant ([oxyMb]=50 μM) used immediately.
The levels of metHb and metMb in RBC lysates were determined using a Shimadzu UV-Vis spectrophotometer (UV-1800; Shimadzu Corporation, Kyoto, Japan) at 577 nm and 630 nm for metHb and metMb in accordance with published methods (Winterbourn CC and Carrell R W (1977). Biochem J 165: 141-148).
C57BL6 mice (7-8 weeks-old) were used under a protocol approved by the university of Sydney Animal Ethics Committee. Dp44mT, Triapine® or Dp4cycH4mT (all at 6 mg/kg) were dissolved in 30% propylene glycol/saline and administered iv via the tail vein. Subsequently, 30 min after administration, mice were anesthetized with isoflurane and blood samples obtained by cardiac puncture. Blood samples were lysed with 2.5 volumes of ultrapure water for metHb estimation. Mice were sacrificed with isoflurane, the heart exhaustively perfused with HBSS and Mb isolated.

[7] = system: MIAPaCa-2 pancreatic cancer cells; experiment: MTT proliferation assay, MIAPaCa-2; format: cell-based; details: Homo sapiens, MIA PaCa-2; MIAPaCa-2, MTT, 72 h
Method: as §1, §2, §3
as §3, with “2B.” for “2A.”, “IC90” for “Growth and antiproliferative activity IC50”

HCT ([1]; Dp4cycH4mT 5 mg/kg/day): 0.41 ± 0.01
Hb ([1]; Dp4cycH4mT 5 mg/kg/day): 131.88 ± 4.31 g/L
Platelets ([1]; Dp4cycH4mT 5 mg/kg/day): 1283 ± 160 10^9/L
RBC ([1]; Dp4cycH4mT 5 mg/kg/day): 9.46 ± 0.31 × 10^12/L
Reticulocytes ([1]; Dp4cycH4mT 5 mg/kg/day): 0.77 ± 0.08 × 10^12/L
WBC ([1]; Dp4cycH4mT 5 mg/kg/day): 3.5 ± 0.34 × 10^9/L
Brain weight ([1]; Dp4cycH4mT 5 mg/kg/day i.v.): 0.30 ± 0.01 g
Heart weight ([1]; Dp4cycH4mT 5 mg/kg/day i.v.): 0.09 ± 0.01 g
Kidney weight ([1]; Dp4cycH4mT 5 mg/kg/day i.v.): 0.17 ± 0.02 g
Liver weight ([1]; Dp4cycH4mT 5 mg/kg/day i.v.): 0.80 ± 0.03 g
Spleen weight ([1]; Dp4cycH4mT 5 mg/kg/day i.v.): 0.08 ± 0.01 g
IC50 [5]: 400 ± 200 nM
IC90 [5]: 5400 ± 1100 nM
levels of metMb [6]: 31.7±3.2%
IC50 [7]: 9 ± 0.3 nM
IC90 [7]: > 5000 nM
SMILES: CN(C(=S)NN=C(c1ccccn1)c1ccccn1)C1CCCCC1 [Dp4cycH4mT, di-2-pyridylketone 4-cyclohexyl-4-methyl-3-thiosemicarbazone]
Body weight loss (% initial weight) ([1]; Dp4cycH4mT 5 mg/kg/day i.v.): 88.0 ± 6.5 % initial weight
cellular 59Fe mobilised (59Fe released as percentage of total 59Fe) [2]: 22%
p21 expression [3]: markedly (p<0.05) increasing
cellular 59Fe uptake (% of the control) [4]: 21%
